# Experimental data published in patent US20090035270A1, “COMBINATION THERAPY USING ANTI-ANGIOGENIC AGENTS AND TNF alpha” (priority 2001, published 2009).
# Residues, ends and D or L forms follow the SMILES beside them. *: point of attachment. Cbz = O=C(OCc1ccccc1)*; CH2F = FC*
# B1: LIGHT: ligand binding to receptors lacking a death domain (protein, UniProt O43557 83-240, looked up)
# Tumor necrosis factor ligand …: LIQERRSHEVNPAAHLTGANSSLTGSGGPLLWETQLGLAFLRGLSYHDGALVVTKAGYYYIYSKVQLGGVGCPLGLASTITHGLYKRTPRYPEELELLVSQQSPCGRATSSSRVWWDSSFLGGVVHLEAGEKVVVRVLDERLVRLRDGTRSYFGAFMV
# B2: TRAIL: death ligand of the TNF-ligand family (protein, UniProt P50591 1-281, looked up)
# Tumor necrosis factor ligand …: MAMMEVQGGPSLGQTCVLIVIFTVLLQSLCVAVTYVYFTNELKQMQDKYSKSGIACFLKEDDSYWDPNDEESMNSPCWQVKWQLRQLVRKMILRTSEETISTVQEKQQNISPLVRERGPQRVAAHITGTRGRSNTLSSPNSKNEKALGRKINSWESSRSGHSFLSNLHLRNGELVIHEKGFYYIYSQTYFRFQEEIKENTKNDKQMVQYIYKYTSYPDPILLMKSARNSCWSKDAEYGLYSIYQGGIFELKENDRIFVSVTNEHLIDMDHEASFFGAFLVG
# B3: FasL: death ligand of the TNF-ligand family (Fas ligand) (protein, UniProt P48023 130-281, looked up)
# Tumor necrosis factor ligand …: QIGHPSPPPEKKELRKVAHLTGKSNSRSMPLEWEDTYGIVLLSGVKYKKGGLVINETGLYFVYSKVYFRGQSCNNLPLSHKVYMRNSKYPQDLVMMEGKMMSYCTTGQMWARSSYLGAVFNLTSADHLYVNVSELSLVNFEESQTFFGLYKL
# What was measured:
# Format in all cases: cell-based, human
# [1] = test system: HUVEC; assay: HUVEC spheroid formation (aggregation) in BSA-coated wells; conditions: mAbs 10 μg/ml, EDTA 5 mM, evaluated at 6 and 16 hours
# Protocol: To test the effect of integrin ligation on TNF-induced apoptosis we identified conditions where endothelial cells could be cultured without integrin-dependent adhesion. Single cell suspensions of endothelial cells rapidly die by anoikis (Meredith et al., Mol. Biol. Cell 4, 953-961 (1993)) thus precluding further analysis. But by seeding human umbilical vein endothelial cells (HUVEC) at high density (1.0×10^6 cells/ml) in BSA-coated wells multicellular spheroids formed within 2-4 hours, and could be maintained for over 24 hours dependent on VE-cadherin and without any detectable contribution from integrins.
# HUVEC were collected by trypsinization, resuspended in complete medium at 1.0×10^6 cells/ml and 1 ml/well were seeded into 12 wells non-tissue culture plates (Evergreen Scientific, Los Angeles, Calif., USA) previously coated with 1% BSA. For aggregation studies, 200 μl of the cell suspension were seeded into 1% BSA-coated microwells of ELISA plates (Maxisorp II, NUNC, Roskilde, Denmark) alone or in the presence of mAbs (10 μg/ml), EDTA (5 mM) or Ca^2+/EDTA (10/5 mM). Spheroid formation was evaluated at 6 hours and 16 hours. Micrographs were take with a Televal 31 microscope (Cart Zeiss AG, Zürich; Switzerland).
# [2] = test system: ICAM-1 expression; assay: Flow cytometry of ICAM-1 cell surface expression induced by TNF in HUVEC; conditions: HUVEC treated with TNF
# Protocol: Activation of the nuclear factor-κB (NF-κB) promotes survival of cells exposed to TNF (Beg & Baltimore, Science 274, 782-784; Van Antwerp et al., Science 274, 787-789 (1996)). Since cell adhesion via integrins activates NF-κB (Scatena et al., J. Cell Biol. 141, 1083-1093 (1998)), we investigated whether the sensitivity of spheroids to TNF-induced apoptosis was due to lack of NF-κB activation. NF-κB activation was assessed by measuring I-κB phosphorylation and degradation, NF-κB nuclear translocation and cell surface expression of ICAM-1, an NF-κB-induced gene (Collins et al., Faseb J. 9, 899-909. (1995)), in spheroid and fibronectin-adherent HUVEC cultures exposed to TNF±IFNγ.
# Aktmp suppresses TNF-induced apoptosis of spheroids in the presence of active NF-κB. We also tested whether both NF-κB activation and active Akt signaling were required for the survival, or whether active Akt alone was sufficient. […]
# Indirect immunostaining of HUVEC and EGFP expression were performed following standard protocol (Ruegg et al., I.c.). […] Ail samples were analyzed with a FACScan II® and Cell Quest® software (Becton Dickinson, Mountain View Calif., USA).
# [3] = test system: HUVEC; assay: Detection of apoptotic HUVEC in culture (YoPro-1 staining); conditions: spheroids; TNF±IFNγ
# Protocol: To test whether integrins modulate TNF-induced apoptosis, we cultured HUVEC on fibronectin (integrin-dependent adhesion) or as spheroids (integrin-independent adhesion) in the absence or presence of TNF (200 ng/ml) and of IFNγ (330 ng/ml), an enhancer of TNF cytotoxicity (Dealtry et al., Eur. J. Immunol. 17, 689-693 (1987)). […] In contrast, spheroids treated with TNF±IFNγ increased uptake of YoPro-1 (an increase suppressed by caspase inhibitors BOC, Z-VAD, IETD and DVED), DNA fragmentation, caspase-3 activation and cleavage of PARP (FIG. 2a, 2b and data not shown). To examine the effect of TNF±IFNγ on cell survival we determined the viability of untreated and treated cultures. […] Treatment with IFNγ alone was not cytotoxic (data not shown). HUVEC adhere to immobilized fibronectin via αVβ3 and α5β1 integrins (Rüegg et al., Nature Med. 4, 408-414 (1998)). To test for the individual contribution of these integrins to cell survival on fibronectin, we cultured HUVEC on plastic-immobilized mAbs (imAbs) directed against αVβ3, α1, α5 and α4 integrins.
# For morphological evaluation, spheroids were embedded in Epon (Fluka Chemie) and thick sections were stained with 1% Methylene/Azur blue. For immunostaining, frozen spheroid sections were fixed in 4% (Fluka Chemis, Buchs, Switzerland) formaldehyde. After blocking with 1% BSA, sections were sequentially incubated for 1 hour with primary mAb (20 μg/ml) and a Cyan3-labeled GaM antiserum (West Grove, Pa., USA). For the TUNEL reaction, frozen spheroids sections were fixed in 4% paraformaledhyde and processed as described (Ruegg et al., I.e.). Spherouids were countsrstained with propidium iodide for total DNA content. […] The apoptosis index was determined by calculating the ratio between the green (TUNEL staining of fragmented DNA) and red (propidium iodide staining by total DNA) pixels. Number of analyzed spheroids per condition were: C, 31; T, 21; TI, 12. […] Cultures were viewed by inverted fluorescence microscopy (Leica DM IRB, Heerbrugg, Switzerland). […]
# [4] = test system: HUVEC; assay: Death ligand cytotoxicity on fibronectin-cultured HUVEC with EMD121974 (viability); conditions: EMD121974 300 μM, ligand 200 ng/ml, overnight
# Protocol: FIG. 8. Decreased integrin ligation enhances TNF-, TRAIL- and FasL-induced cytotoxicity in vitro. HUVEC were cultured overnight on fibronectin coated microtiter plates in the absence (control) or presence of EMD121974 (300 μM), TNF (200 ng/ml), FasL (200 ng/ml), TRAIL (200 ng/ml), LIGHT (200 ng/ml), and IFNγ (330 ng/ml) as indicated. Viability was determined by MST assays.
molecule,measurement,setting,value
O=C(O)CN(CCN(CC(=O)O)CC(=O)O)CC(=O)O [EDTA],HUVEC spheroid formation,[1],blocked spheroid formation
O=c1cc(N2CCOCC2)oc2c(-c3ccccc3)cccc12 [LY294002],inhibition of ICAM-1 expression induced by TNF,[2],did not inhibit
CC(NC(=O)C(NC(=O)OCc1ccccc1)C(C)C)C(=O)NC(CC(=O)O)C(=O)CF (stereo not drawn) [Z-VAD] (Cbz-Val-Ala-Asp-CH2F; configuration not given here),effect of caspase inhibitor on increased YoPro-1 uptake of spheroids treated with TNF±IFNγ,[3],suppressed
COC[C@H]1OC(=O)c2coc3c2[C@@]1(C)C1=C(C3=O)[C@@H]2CCC(=O)[C@@]2(C)C[C@H]1OC(C)=O [wortmannin],inhibition of ICAM-1 expression induced by TNF,[2],did not inhibit
IETD,effect of caspase inhibitor on increased YoPro-1 uptake of spheroids treated with TNF±IFNγ,[3],suppressed
B1,sensitivity to pro-apoptotic effects of death ligand in the presence of EMD121974 (synergism with αVβ3-blockage),[4],no synergism
B2,sensitivity to pro-apoptotic effects of death ligand in the presence of EMD121974 (synergism with αVβ3-blockage),[4],Increased sensitivity
B3,sensitivity to pro-apoptotic effects of death ligand in the presence of EMD121974 (synergism with αVβ3-blockage),[4],Increased sensitivity
